For series [1], the target named is T1, human α1D-adrenoceptors (Homo sapiens, UniProt P25100).
T1 sequence (P25100 1-572): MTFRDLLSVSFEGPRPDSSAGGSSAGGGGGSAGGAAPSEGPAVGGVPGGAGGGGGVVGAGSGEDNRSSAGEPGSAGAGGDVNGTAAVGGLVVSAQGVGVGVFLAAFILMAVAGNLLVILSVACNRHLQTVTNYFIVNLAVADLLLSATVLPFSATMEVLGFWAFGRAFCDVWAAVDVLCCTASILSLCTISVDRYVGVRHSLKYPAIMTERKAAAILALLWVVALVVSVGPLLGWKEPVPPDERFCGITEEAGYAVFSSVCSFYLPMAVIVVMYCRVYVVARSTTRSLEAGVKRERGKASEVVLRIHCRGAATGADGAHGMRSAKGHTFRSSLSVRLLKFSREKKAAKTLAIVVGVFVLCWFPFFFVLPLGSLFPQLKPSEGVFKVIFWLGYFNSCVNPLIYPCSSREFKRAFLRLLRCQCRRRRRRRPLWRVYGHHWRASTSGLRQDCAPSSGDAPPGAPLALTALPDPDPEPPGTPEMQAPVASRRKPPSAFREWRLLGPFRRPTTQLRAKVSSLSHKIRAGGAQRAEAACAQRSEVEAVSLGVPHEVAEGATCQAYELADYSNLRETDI
Briefly: Radioligand-receptor binding assay, human recombinant α1D-adrenoceptor, [3H]prazosin. How it is done: Chinese hamster ovary (CHO) cells which had been stably transfected with human α1A, α1B, or α1D-adrenoceptors (Keffel et al., Biochem. Biophys. Res. Commun., 2000, 272, 906–11) were cultured in an atmosphere of 5% CO2/95% air at 37° C. in F-12 HAM medium supplemented with 10% heat-inactivated fetal calf serum, 1 mM glutamine, 100 U/ml penicillin and 0.1 mg/ml streptomycin. Selection pressure was maintained by regular addition of geneticin to the culture medium.
Competitive radioligand binding to the cloned subtypes of […] was performed using [^3H]prazosin as the radioligand as described by Michel et al, Br. J. Pharmacol., 98, 883–889 (1989) with minor modifications. Experiments were performed in binding buffer consisting of 50 mM Tris, 10 mM MgCl2 and 0.5 mM EDTA at pH 7.5 in a total assay volume of 1000 μl. The protein content typically was 40–60 μg/assay. The mixtures were incubated at 25° C. for 45 minutes. Incubations were terminated by rapid vacuum filtration over GF/C filters followed by two washes of the filters each with 10 ml ice-cold incubation buffer. Non-specific binding was defined as binding in the presence of 10 μM phentolamine.
The IC50 & Kd were estimated by using the non-linear curve fitting program using G Pad Prism software. The value of inhibition constant Ki was calculated from competitive binding studies by using Cheng & Prusoff equation [Cheng & Prusoff, Biochem. Pharmacol., 22, 3099–3108 (1973)], Ki=IC50/(1+L/Kd), where L is the concentration of [^3H] prazosin used in the particular experiment. Kd of [^3H] prazosin was determined from saturation binding studies. The values were tabulated as mean±SEM of pKi values, where pKi is the −log of Ki value.

The target in series [2] is T2, rat α1A-adrenoceptor (prostate) (Rattus norvegicus, UniProt P43140).
T2 sequence (P43140 1-466): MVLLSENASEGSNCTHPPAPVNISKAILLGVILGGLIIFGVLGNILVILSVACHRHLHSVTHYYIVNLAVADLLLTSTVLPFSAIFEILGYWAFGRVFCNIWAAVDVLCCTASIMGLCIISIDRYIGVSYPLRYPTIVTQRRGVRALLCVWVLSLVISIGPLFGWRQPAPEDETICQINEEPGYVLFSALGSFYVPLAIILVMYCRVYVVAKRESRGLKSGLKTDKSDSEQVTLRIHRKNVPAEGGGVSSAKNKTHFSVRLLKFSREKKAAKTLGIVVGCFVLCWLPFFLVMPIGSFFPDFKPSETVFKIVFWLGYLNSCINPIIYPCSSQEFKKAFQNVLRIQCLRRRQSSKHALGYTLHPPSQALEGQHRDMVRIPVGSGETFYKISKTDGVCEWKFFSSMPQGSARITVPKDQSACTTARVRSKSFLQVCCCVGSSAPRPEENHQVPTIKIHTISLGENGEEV
Briefly: In-vitro functional study, agonist-induced contractile response on isolated rat prostate. The format is biochemical. As to the method:
Aorta, prostate and spleen tissues were isolated from urethane anaesthetized (1.5 gm/kg) male wistar rats. […] A resting tension of 2 g (aorta) or 1 g (spleen and prostate) was applied to tissues. Contractile response was monitored using a force displacement transducer and recorded on chart recorders. Tissues were allowed to equilibrate for 2 hours. At the end of equilibration period, concentration response curves to norepinephrine (aorta) and phenylepinephrine (spleen and prostate) were obtained in absence and presence of tested compound (at concentrations of […]). Antagonist affinities were calculated and expressed as pKB vales in Table II.
To compare the differences in pKB at the α1-arenrenoceptor subtypes one-way ANOVA followed by Dunett ‘t’ test was applied. A p<0.05 was considered statistically significant.

Series [3] deals with T3, 5-HT1A receptors (Homo sapiens, UniProt P08908).
T3 sequence (P08908 1-422): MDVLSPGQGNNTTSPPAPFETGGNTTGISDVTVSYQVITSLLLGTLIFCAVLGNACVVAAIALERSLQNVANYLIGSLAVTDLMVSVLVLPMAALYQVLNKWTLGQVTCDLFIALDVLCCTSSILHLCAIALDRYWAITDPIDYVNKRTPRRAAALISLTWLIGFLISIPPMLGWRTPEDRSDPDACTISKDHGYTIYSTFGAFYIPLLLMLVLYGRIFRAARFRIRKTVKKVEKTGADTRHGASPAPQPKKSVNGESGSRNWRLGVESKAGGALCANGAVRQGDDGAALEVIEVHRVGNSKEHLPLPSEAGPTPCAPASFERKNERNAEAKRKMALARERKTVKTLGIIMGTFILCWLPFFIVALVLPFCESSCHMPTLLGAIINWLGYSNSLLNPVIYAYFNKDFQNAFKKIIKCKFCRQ
Briefly: biochemical. The format is binding. How it is done:
Receptor binding assays were performed using human recombinant 5HT1A receptors. […] Non-specific binding was defined by 10 μM Metergoline.

The target of series [4] is T3, 5-HT1A receptors. The conditions noted are these: reported, J. Med. Chem. 2000; cited from earlier work.
Series [5] concerns the target D-3 receptors (Homo sapiens, UniProt P35462). The conditions noted are these: reported, J. Med. Chem. 2000; cited from earlier work.

Molecules are shown by their SMILES. Read-outs that look alike come from different tables or passages of the source.

Chain of D-3 receptors (P35462 whole entry): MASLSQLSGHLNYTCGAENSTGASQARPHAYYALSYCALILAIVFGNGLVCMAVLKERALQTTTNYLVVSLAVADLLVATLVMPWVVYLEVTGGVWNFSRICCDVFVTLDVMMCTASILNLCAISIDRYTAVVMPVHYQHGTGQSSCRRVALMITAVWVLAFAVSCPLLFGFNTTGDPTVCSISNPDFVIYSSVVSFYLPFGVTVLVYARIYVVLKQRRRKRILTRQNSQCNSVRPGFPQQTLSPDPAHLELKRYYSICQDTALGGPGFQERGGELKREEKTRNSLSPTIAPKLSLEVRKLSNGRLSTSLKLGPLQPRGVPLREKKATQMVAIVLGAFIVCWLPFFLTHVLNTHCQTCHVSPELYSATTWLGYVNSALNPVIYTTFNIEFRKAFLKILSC

Consider `CCOc1ccccc1OCCN[C@H](C)Cc1ccc(O)c(S(N)(=O)=O)c1` [Formula I, R (−)-5-[2-[[2-(2-ethoxyphenoxy)ethyl]amino]propyl]-2-hydroxybenzenesulfonamide], for which the melting point (in general, the temperature, or range, at which the solid turns liquid) came to 159.5 °C. Besides, the Ki in series [1] is 0.107 nM. In series [2], this compound had a Kb of 0.0162 nM. The “α1A versus α1B selectivity” value in series [2] (functional assays, rat tissues) stood at 31 fold. Further, in series [3], the Ki is 9.77 nM. The “fold greater α1A versus 5HT1A selectivity as compared to tamsulosin” value in series [3] (Tables I and III) came to 27 fold. For the same compound, in series [3] (human recombinant receptors), the “fold lower affinity for 5HT1A receptors than tamsulosin” value amounted to 12.6 fold.

For `CCOc1ccccc1OCCNC(C)Cc1ccc(OC)c(S(N)(=O)=O)c1` (single isomer, unassigned; (-)) [Tamsulosin, (−) isomer of 5-[2-[2-(2-ethoxyphenoxy)ethylamino]-2-methylethyl]-2-methoxybenzene sulfonamide, reference compound], the Ki was 0.0813 nM in series [1] (human recombinant receptors in CHO cells, mean ± SEM, read-out: pKi α1D (converted)) and 0.794 nM in series [3] (human recombinant receptors, read-out: PKi 5HT1A (converted)). The Kb in series [2] (rat prostate, phenylepinephrine-induced contraction, read-out: pKB α1A (converted)) was 0.0309 nM. Moreover, in series [4], the “affinity for 5-HT1A receptors” value is given as “subnanomolar affinity”. Besides, in series [5], the “affinity for D-3 receptors” value was “subnanomolar affinity”.

Values taken from US7084301B2 (Ranbaxy Laboratories Limited, priority 2003, dated 2006).
